Reference: publication PMC5471453, “Dual-targeted peptide-conjugated multifunctional fluorescent probe with AIEgen for efficient nucleus-specific imaging and long-term tracing of cancer cells” (Chemical Science, 2017)

Assays:
[1] = system: MDA-MB-231 cells, HT-1080 cells, A375 cells and HLF cells; test: MTT assay of cell viability; format: cell-based; conditions: 1 μM, 5 μM and 10 μM for 48 h in triplicate, 96-well plate; absorbance 570 nm; all the cell lines
Procedure: Japan). All fluorescence images were analysed with FV10-ASW V4.0 Image software (Olympus). Three-dimensional map of cells were used 3D rendering by Imaris (Andor-Bitplane, Zurich). Co-localization analysis were used Image-Pro Plus 6.0.
The cytotoxic potential of PyTPE, Hoechst 33258 and TCNTP was assessed using the MTT assay. MDA-MB-231 cells, HT-1080 cells, A375cells and HLF cells were respectively treated with PyTPE (1 μM, 5 μM and 10 μM), Hoechst 33258 (1 μM, 5 μM and 10 μM) and TCNTP (1 μM, 5 μM and 10 μM) for 48 h in triplicate in a 96-well plate. The absorbance of MTT at 570 nm was recorded by the Infinite M200 PRO […]
Fig. S21 Metabolic viability of (A) MDA-MB-231 cells, (B) HT-1080 cells, (C) A375 cells and (D) HLF cells after incubation with PyTPE and TCNTP at concentrations of 1 μM, 5 µM and 10 µM for 48 h. Black bars represent PyTPE, red bars represent TCNTP and blue bars […]
Fig. S22 Fluorescence images of HLF cells treated with 3 µM PyTPE (A) and TCNTP (B) with Hoechst 33258 of each formulation for 12h in cell culturing condition. The white scale […]

A375 cells = test: Long-term tracing of cancer cells over culture cycles (CLSM); format: cell-based, human; conditions: 3 μM for 4 h, after the fifth culture cycle (5 d)
Procedure: Due to reverse diffusion, most conventional dyes cannot be retained in living cells for more than a few hours.[35] Although some cell-tracker fluorescence dyes, for example Hoechst stains, can remain in viable cells for a few generations, they bind to DNA and thus interfere with DNA replication during cell division which can be cytotoxic. […] A375 cells were incubated separately with each of 3 μM TCNTP and Hoechst 33258. After 4 h incubation, the probe (or dye) was discarded and the labelled cells continued to be cultured overnight. Then the labelled cells were digested and divided into two dishes for another overnight incubation, referred to as one culture cycle. […] While the yellow fluorescence of TCNTP mainly distributed to cytoplasm for the third culture cycle (3 d) due to degradation of peptides and redistribution of the probe during cell division. […]
Fig. 5 The CLSM imaging of A375 cells treated with 3 μM TCNTP (A) and 3 μM Hoechst 33258 (B) for 4 h with further incubation for 1 d, 3 d and 5 d in cell culturing conditions. (C) The average fluorescence intensity of TCNTP and Hoechst 33258 in 60× microscopic field (the insets). […]
The cells stained by TCNTP were still visible even after the tenth culture cycle (Fig. S20 ^†), whereas very weak fluorescence signals were detected in the Hoechst 33258-stained cells after the third culture cycle (Fig. 5B). […]

[2] = system: A375 cells co-cultured with MDA-MB-231 cells or HLF cells; test: Leak-free marking: stained A375 cells co-cultured with unstained cells; format: cell-based, human; conditions: co-cultured with MDA-MB-231 or HLF cells for 24 h; CLSM
Description: The cytocompatible nature of TCNTP and its precisely targeted interaction with organelles may account for the leak-free marking inside cells. A375 cells stained by TCNTP were co-cultured with MDA-MB-231 cells or human lung fibroblast (HLF) cells (normal human cell line), in order to evaluate whether TCNTP could be utilized to discriminate between different cell lines. TCNTP could easily stain the MDA-MB-231 cells and HLF cells in monoculture experiment (Fig. S22 ^†).
The excellent intracellular preservation of TCNTP may be used to develop novel fluorescent probes for differentiating specific cancerous cells from normal cells and for tracing diffusion, necrosis, shrinkage and suppression processes of tumor cells.
Fig. 6 The experimental scheme of TCNTP-stained (A) or Hoechst 33258-stained (F) A375 cells co-cultured with unstained cells. The CLSM imaging of co-cultivated TCNTP-stained (B) A375 cells and unstained MDA-MB-231 cells (the blue ellipses) or (D) TCNTP-stained A375 cells and unstained HLF cells (the blue ellipses). The average fluorescence intensity of TCNTP in four partial enlarged views (C and E). […] The average fluorescence intensity of Hoechst 33258 in four partial enlarged views (H and J). The blue fluorescence channel: excitation wavelength, 405 nm; emission collected, 425–485 nm. The yellow fluorescence channel: excitation wavelength, 405 nm; emission collected, 495–575 nm. […]

SMILES: CN1CCN(c2ccc3[nH]c(-c4ccc5[nH]c(-c6ccc(O)cc6)nc5c4)nc3c2)CC1 [Hoechst 33258]
- toxicity by MTT assay of cell viability [1]: high toxicity
- Active Cells Remaining (number of remaining stained living cells) (A375 cells; 10× microscopic field): 2%
- Signal Remaining (fluorescence signal remaining) (A375 cells; 60× microscopic field): 6%
- leakage of dye from stained A375 cells into unstained cells [2]: fast leakage
